Test results taken from US10752612B2, “PLK4 inhibitors” (LUDWIG INSTITUTE FOR CANCER RESEARCH LTD, priority 2015, dated 2020).
Where “and” joins values, the source holds several entries; their conditions need not be identical. Equal entries are not always repeated. Entries after “also recorded” stand apart in the source; their conditions may differ.

Assays:
[1] = tested on: full-length mouse Plk4-YFP; experiment: Plk4 stabilization assay, Plk4-YFP DLD-1 cells; assay type: cell-based, human; conditions: 250 nM, 24 hours
Experimental: Plk4 stabilization assay. Expression was induced in Plk4-YFP DLD-1 cells using 1 μg/ml doxycycline. At the same time, cells were treated with the indicated concentrations of compounds. Cells were incubated for 24 hours before harvesting for Western blotting (see below).
Western blotting. […] Cell extracts were stored at −80° C. until use.

HeLa cells = experiment: Quantification of centrosome numbers from fixed samples, HeLa; assay type: cell-based, human; conditions: HeLa, 50 or 100 nM
Experimental: Quantification of centrosome numbers from fixed samples. Cells were seeded onto poly-D-lysine-coated coverslips (Neuvitro) in 12-well plates at least 8 hours before fixation. At the required timepoints for each experiment, cells were washed once with PBS and fixed in 100% methanol (−20° C., 5 minutes). Fixed cells were washed with PBS, blocked with PBS+4% BSA+0.1% Triton X-100, and stained with primary antibodies against γ-tubulin and Cep192, which localize to the pericentriolar material and proximal to the outer centriole wall, respectively (47, 48). Alexa488-labeled anti-mouse secondary antibody (against anti-γ-tubulin) and Alexa647-labeled anti-rabbit secondary antibody (against anti-Cep192) were both used at 1.5 jag/mL. Samples were mounted onto slides with Prolong Gold antifade reagent (Life Technologies). Images of fixed interphase cells were acquired on a Nikon Eclipse E800 with a 60×1.4 NA PlanApo objective and ORCA-ER camera (Hamamatsu) using Metamorph software (Molecular Devices). Quantification of foci was performed manually. A focus was defined as a bona-fide centrosome if it was positive for both γ-tubulin and Cep192 (true for >95% of foci).

SRPK1 = biological target: T1, SRPK1 (Homo sapiens, UniProt Q96SB4); experiment: Radiometric kinase assay, off-target SRPK1; assay type: biochemical
T1 construct: Reaction Biology (Malvern, Pa.), contract assay
Experimental: (§1) Aurora B and other radiometric kinase assays were performed by Reaction Biology (Malvern, Pa.). Kinome profiling of centrinone and centrinone-B was performed by DiscoveRx (San Diego, Calif.).

[2] = biological target: T2, human Plk4 kinase domain (aa 2-275) (Homo sapiens, UniProt O00444); experiment: Plk4 kinase assay (ADP-Glo); assay type: biochemical
T2 construct: purified 6×His-tagged human Plk4 kinase domain (aa 2-275); 6xHis; made in house; host or cells: E. coli
T2 sequence (O00444 2-275): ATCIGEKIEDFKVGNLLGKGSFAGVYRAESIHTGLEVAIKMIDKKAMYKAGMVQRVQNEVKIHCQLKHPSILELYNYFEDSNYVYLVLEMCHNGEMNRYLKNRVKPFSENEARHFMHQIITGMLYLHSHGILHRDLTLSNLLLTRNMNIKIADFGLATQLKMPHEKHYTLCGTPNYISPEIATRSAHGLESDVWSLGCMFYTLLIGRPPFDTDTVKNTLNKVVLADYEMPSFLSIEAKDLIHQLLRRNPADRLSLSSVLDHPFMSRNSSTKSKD
Method in brief: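 Enzyme at 2.5-10 nM final, pH 8.0, reacted 4-16 hours at 25° C; ADP generation read by ADP-Glo luminescence. Ki derived from IC50 by Cheng-Prusoff or, for tight binders, Copeland formalism.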

JAK2 = biological target: T3, JAK2 (Homo sapiens, UniProt O60674); experiment: Radiometric kinase assay, off-target JAK2; assay type: biochemical
T3 construct: Reaction Biology (Malvern, Pa.), contract assay
Experimental: as §1

human Aurora A = biological target: T4, human Aurora A (Homo sapiens, UniProt O14965); experiment: Aurora A kinase assay (ADP-Glo); assay type: biochemical
T4 construct: purchased Millipore
T4 sequence (O14965 1-403): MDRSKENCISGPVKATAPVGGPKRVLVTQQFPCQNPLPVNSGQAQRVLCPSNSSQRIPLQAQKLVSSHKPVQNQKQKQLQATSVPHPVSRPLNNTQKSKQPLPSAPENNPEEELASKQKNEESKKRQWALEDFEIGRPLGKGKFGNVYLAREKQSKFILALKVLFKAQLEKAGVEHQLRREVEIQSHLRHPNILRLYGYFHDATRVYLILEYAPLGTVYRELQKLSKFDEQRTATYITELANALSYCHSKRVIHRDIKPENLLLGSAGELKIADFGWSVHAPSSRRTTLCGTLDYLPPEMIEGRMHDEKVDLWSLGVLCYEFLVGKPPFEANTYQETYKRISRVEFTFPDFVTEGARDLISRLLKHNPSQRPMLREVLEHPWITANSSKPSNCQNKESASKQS
Experimental: LRRASLG)+inhibitors arrayed in dose response (added as described above). […] Detection, measurement and data analysis were performed as described above.

TNK1 = biological target: T5, TNK1 (Homo sapiens, UniProt Q13470); experiment: Radiometric kinase assay, off-target TNK1; assay type: biochemical
T5 construct: Reaction Biology (Malvern, Pa.), contract assay
T5 sequence (Q13470 1-666): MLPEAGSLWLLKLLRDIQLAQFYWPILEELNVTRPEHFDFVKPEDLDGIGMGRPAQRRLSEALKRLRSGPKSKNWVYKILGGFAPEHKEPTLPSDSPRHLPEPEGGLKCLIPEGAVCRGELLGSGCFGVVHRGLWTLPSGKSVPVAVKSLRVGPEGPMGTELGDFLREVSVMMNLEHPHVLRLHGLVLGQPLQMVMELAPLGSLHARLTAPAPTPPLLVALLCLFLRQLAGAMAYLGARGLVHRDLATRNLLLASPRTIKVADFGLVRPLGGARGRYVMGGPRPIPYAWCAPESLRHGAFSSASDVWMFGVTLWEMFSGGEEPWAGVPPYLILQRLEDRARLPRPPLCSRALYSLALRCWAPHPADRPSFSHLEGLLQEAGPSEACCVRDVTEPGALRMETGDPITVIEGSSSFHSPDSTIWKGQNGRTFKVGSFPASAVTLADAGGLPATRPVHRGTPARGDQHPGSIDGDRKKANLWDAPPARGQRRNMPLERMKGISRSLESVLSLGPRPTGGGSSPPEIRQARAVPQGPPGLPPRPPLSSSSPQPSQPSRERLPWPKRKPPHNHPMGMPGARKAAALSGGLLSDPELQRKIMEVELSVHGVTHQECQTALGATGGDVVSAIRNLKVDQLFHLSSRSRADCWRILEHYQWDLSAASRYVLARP
Experimental: as §1

ROS/ROS1 = ROS/ROS1 (Homo sapiens, UniProt P08922); experiment: Radiometric kinase assay, off-target ROS/ROS1; assay type: biochemical
Experimental: as §1

LRRK2 = biological target: T6, LRRK2 (Homo sapiens, UniProt Q5S007); experiment: Radiometric kinase assay, off-target LRRK2; assay type: biochemical
T6 construct: Reaction Biology (Malvern, Pa.), contract assay
Experimental: as §1

[3] = biological target: T7, inhibitor-resistant mutant Plk4 (G95L) (Homo sapiens, UniProt O00444, G95L); experiment: Plk4 (G95L) mutant kinase assay; assay type: biochemical
T7 construct: Plk4 assays used equal volumes of: (1) purified 6×His-tagged human Plk4 kinase domain (aa 2-275); 6xHis; made in house; host or cells: E. coli
Experimental: Kinase assays. […] Reactions were allowed to proceed for 4-16 hours at 25° C. Detection was performed using ADP-Glo reagent (Promega), following manufacturer's instructions. Luminescence was measured on an Infinite M1000 plate reader (Tecan). Data were fit using Prism (GraphPad) and Kis were calculated from IC50 data using the Cheng and Prusoff equation (37) or the Copeland formalism for tight-binding inhibitors (38).

Aurora B = biological target: T8, Aurora B (Homo sapiens, UniProt Q96GD4); experiment: Aurora B radiometric kinase assay (Reaction Biology); assay type: biochemical
T8 construct: Reaction Biology (Malvern, Pa.), contract assay
Experimental: Aurora B and other radiometric kinase assays were performed by Reaction Biology (Malvern, Pa.).

RET = biological target: T9, RET (Homo sapiens, UniProt P07949); experiment: Radiometric kinase assay, off-target RET; assay type: biochemical
T9 construct: Reaction Biology (Malvern, Pa.), contract assay
Experimental: as §1

centrosomes in cells = experiment: Cellular centrosome depletion (cell line not stated); assay type: cell-based; conditions: cellular activity, FIG. 1A
Experimental: Centriole depletion assay for compound screening. 1,500 NIH/3T3 cells or 3,500 HCT116 cells were seeded into 96-well SCREENSTAR microplates (Greiner) and treated with inhibitors in dose response, added from DMSO stocks. After 3 days, cells were fixed directly in the wells with 100% methanol (−20° C., 10 minutes). The fixed cells were washed with PBS and stained with primary antibodies against γ-tubulin and, for a subset of compounds, Cep192. Cells were then stained with Alexa-488 donkey anti-mouse and Alexa-647 goat anti-rabbit secondary antibodies. Cells were imaged using either a Model 500 LumaScope (Etaluma) or an EVOS FL (Advanced Microscopy Group/Life Technologies), and centriole depletion was determined by scoring the percentage of cells without visible γ-tubulin/Cep192 foci.

FLT4/VEGFR3 = FLT4/VEGFR3 (Homo sapiens, UniProt P35916); experiment: Radiometric kinase assay, off-target FLT4/VEGFR3; assay type: biochemical
Experimental: as §1

RPE1 cells = experiment: Analysis of mitosis and daughter cell fate, RPE1; assay type: cell-based, human; conditions: RPE1, only mitotic events with clear missegregation, FIG. 18B
Experimental: Analysis of mitosis and daughter cell fate. […] Cells were seeded into 96-well cycloolefin plates at 5000 cells/well, 8-10 hours before imaging. Movies were acquired on the CV1000 with a 40×0.95 NA U-PlanApo objective. The imaging chamber was maintained at 37° C. and 5% CO2. Image acquisition and data analysis were performed using CellVoyager software. 20 fields/well were imaged. For HeLa and NIH/3T3 cells, 5×2 μm z-sections in the GFP (25% power, 125 ms, 30% gain) and RFP (25% power, 100 ms, 30% gain) channels were captured in each field, at 5-minute intervals for 24 hours. For RPE1 cells, 5×2 μm z-sections in the GFP (20% power, 100 ms, 30% gain) and RFP (25% power, 100 ms, 30% gain) channels were captured in each field, at 5-minute intervals for 8 hours. To track RPE1 daughter cell fate, imaging was then switched to 3×4 μm z-sections in the RFP channel only, at 10-minute intervals for 48 hours. Mitosis was measured from nuclear envelope breakdown to anaphase onset (or arrest). Results represent combined measurements of 100 mother cells per condition from 2-4 independent experiments.
To study the correlation between mother cell prometaphase duration and daughter cell fate, RPE1 cells co-expressing centrin-GFP and H2B-RFP were seeded into 96-well cycloolefin plates at 5000 cells/well, 8-10 hours before imaging. Cells were treated with 80 nM nocodazole and immediately imaged on the CV1000 system with a 40×0.95 NA U-PlanApo objective. The imaging chamber was maintained at 37° C. and 5% CO2. 20 fields/well were imaged. 5×2 Lm z-sections in the GFP (20% power, 100 ms, 30% gain) and RFP (25% power, 100 ms, 30% gain) channels were captured in each field, at 5-minute intervals for 6 hours. The plate was then removed from the microscope, and wells were washed 6 times with warm medium. The plate was returned to the microscope, and imaging was resumed, capturing 3×4 Lm z-sections in the RFP channel only, at 10-minute intervals for 50 hours. To study the effect of chromosome missegregation on daughter cell fate, cells were treated with 1 LM NMS-P715 to inhibit the spindle assembly checkpoint kinase Mps1, then imaged as described above. Only mitotic events with clear missegregation (lagging chromosomes and subsequent formation of daughter cells with micronuclei) were analyzed. For both experiments, results represent combined measurements of 100 mother cells from 2 independent experiments.

[4] = off-target from DiscoveRx kinome profiling

FLT4/VEGFR3, sequence (P35916 25-1363): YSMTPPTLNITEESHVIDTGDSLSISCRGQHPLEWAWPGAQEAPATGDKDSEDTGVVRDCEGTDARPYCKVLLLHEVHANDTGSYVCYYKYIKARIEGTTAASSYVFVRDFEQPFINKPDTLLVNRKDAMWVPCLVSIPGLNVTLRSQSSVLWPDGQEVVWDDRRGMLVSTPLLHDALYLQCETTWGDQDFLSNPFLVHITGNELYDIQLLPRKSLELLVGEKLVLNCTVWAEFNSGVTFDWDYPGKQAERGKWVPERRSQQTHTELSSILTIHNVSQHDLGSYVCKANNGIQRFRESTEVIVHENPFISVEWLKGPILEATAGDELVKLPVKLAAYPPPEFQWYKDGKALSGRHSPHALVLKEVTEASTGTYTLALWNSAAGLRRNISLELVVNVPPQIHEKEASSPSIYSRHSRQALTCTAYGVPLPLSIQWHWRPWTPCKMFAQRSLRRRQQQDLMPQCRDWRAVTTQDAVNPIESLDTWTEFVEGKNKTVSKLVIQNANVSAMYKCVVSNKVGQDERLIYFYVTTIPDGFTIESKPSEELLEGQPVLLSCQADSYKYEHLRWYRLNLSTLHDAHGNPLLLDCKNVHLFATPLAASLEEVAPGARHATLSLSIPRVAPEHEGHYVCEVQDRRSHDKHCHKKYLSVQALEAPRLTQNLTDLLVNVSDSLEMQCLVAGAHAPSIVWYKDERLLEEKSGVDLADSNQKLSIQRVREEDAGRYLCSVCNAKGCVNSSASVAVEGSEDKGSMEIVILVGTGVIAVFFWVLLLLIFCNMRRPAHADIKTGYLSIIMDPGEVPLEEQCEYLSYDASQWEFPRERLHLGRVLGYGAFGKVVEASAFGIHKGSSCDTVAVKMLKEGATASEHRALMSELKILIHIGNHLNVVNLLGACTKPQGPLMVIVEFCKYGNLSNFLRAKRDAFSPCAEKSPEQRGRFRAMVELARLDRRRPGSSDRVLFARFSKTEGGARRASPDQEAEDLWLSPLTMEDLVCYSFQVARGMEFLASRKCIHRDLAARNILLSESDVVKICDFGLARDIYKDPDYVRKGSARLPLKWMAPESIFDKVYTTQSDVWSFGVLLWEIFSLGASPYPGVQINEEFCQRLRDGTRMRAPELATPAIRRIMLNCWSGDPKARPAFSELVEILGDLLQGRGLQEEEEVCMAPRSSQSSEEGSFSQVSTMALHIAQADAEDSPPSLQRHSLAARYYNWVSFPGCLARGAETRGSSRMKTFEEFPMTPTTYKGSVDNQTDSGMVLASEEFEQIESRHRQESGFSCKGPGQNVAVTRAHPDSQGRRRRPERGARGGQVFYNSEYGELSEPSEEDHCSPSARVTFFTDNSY
T7 sequence (O00444 2-275 G95L): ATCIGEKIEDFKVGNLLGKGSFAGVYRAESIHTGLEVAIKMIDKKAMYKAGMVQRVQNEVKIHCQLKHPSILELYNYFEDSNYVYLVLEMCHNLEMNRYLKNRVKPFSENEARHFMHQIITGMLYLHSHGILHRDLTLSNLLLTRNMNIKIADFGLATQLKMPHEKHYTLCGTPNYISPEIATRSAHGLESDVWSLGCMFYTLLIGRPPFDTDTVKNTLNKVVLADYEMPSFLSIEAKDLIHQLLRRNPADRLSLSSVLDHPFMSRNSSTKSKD
T9 sequence (P07949 29-1114): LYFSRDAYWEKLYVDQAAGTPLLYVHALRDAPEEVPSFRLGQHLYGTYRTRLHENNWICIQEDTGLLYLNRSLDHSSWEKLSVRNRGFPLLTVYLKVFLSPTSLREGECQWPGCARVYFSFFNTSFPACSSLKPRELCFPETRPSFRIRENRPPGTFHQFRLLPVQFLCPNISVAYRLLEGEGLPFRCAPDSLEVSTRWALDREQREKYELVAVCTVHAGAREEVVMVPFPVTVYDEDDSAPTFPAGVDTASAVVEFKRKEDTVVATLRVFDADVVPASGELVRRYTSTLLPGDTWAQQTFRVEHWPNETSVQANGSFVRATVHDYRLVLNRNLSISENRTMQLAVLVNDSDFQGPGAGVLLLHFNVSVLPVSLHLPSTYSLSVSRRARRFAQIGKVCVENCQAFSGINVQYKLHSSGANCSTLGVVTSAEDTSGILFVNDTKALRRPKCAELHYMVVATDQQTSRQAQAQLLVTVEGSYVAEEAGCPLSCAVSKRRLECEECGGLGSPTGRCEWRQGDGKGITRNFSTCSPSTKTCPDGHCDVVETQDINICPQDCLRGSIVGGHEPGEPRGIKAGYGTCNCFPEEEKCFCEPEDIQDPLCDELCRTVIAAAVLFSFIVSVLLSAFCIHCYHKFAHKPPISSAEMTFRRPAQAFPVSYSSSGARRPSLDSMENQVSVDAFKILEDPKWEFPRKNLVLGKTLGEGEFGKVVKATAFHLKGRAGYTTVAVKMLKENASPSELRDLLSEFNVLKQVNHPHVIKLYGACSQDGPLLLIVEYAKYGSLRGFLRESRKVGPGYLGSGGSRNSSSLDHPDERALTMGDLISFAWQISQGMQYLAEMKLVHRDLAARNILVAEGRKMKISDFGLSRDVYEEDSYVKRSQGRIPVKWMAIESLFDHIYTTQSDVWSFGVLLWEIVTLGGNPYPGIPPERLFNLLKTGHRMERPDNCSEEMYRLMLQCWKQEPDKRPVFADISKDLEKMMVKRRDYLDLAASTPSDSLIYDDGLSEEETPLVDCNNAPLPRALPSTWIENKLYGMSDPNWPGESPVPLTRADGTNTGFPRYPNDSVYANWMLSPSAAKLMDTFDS
T1 sequence (Q96SB4 whole entry): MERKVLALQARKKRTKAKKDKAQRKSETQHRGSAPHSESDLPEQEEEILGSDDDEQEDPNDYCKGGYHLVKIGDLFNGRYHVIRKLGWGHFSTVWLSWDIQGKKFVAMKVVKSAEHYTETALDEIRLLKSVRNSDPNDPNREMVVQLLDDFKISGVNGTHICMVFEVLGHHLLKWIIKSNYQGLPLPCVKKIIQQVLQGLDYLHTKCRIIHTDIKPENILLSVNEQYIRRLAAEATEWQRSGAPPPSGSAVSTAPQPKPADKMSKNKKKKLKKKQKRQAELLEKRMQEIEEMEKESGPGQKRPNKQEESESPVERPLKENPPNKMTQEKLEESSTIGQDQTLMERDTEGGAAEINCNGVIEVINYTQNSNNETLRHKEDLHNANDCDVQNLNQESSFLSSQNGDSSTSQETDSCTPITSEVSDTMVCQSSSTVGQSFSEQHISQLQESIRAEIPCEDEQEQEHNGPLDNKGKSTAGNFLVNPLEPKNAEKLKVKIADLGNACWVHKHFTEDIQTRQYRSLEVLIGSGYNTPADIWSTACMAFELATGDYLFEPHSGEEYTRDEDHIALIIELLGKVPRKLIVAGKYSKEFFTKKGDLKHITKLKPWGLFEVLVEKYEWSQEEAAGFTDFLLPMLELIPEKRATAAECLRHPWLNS
T3 sequence (O60674 whole entry): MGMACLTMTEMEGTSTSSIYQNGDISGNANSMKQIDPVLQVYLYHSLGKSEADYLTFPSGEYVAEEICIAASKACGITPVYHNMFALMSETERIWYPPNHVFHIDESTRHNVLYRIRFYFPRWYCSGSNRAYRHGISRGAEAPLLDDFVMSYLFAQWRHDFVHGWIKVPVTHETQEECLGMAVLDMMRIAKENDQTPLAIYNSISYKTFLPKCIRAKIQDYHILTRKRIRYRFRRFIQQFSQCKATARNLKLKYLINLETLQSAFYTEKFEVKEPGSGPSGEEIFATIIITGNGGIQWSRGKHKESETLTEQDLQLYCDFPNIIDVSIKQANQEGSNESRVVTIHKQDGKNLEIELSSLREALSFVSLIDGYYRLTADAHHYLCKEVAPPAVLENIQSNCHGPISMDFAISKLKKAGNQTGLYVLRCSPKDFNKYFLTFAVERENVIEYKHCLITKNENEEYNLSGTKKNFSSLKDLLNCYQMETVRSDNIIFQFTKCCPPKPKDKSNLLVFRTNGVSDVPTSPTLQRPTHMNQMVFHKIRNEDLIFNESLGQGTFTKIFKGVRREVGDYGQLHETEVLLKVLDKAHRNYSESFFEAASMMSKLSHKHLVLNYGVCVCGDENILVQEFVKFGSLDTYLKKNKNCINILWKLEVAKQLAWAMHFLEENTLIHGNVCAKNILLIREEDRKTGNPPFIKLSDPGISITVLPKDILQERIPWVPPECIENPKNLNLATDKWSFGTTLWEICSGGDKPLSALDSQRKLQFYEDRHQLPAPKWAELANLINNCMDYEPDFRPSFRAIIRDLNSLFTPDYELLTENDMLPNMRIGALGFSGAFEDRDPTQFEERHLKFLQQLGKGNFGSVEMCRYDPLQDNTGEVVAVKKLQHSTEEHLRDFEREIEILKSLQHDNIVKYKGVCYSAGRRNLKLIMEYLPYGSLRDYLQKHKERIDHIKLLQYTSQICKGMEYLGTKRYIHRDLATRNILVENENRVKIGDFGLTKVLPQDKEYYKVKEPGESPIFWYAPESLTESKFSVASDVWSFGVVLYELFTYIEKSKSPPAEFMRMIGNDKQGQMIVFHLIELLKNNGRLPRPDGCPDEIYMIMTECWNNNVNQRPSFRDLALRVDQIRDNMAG
T8 sequence (Q96GD4 whole entry): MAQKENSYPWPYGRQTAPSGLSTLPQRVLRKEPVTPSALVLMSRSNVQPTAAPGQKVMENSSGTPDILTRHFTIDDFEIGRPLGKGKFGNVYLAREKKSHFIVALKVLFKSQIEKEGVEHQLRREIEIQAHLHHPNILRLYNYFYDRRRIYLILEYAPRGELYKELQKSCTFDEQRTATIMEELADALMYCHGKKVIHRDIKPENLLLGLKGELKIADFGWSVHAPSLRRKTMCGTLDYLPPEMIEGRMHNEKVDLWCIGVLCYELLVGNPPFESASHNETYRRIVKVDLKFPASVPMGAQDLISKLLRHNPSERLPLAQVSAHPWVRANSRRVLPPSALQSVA

COc1ccc2c(c1)[C@]1(C[C@H]1c1ccc3c(/C=C/c4ccc(CN5C[C@@H](C)O[C@@H](C)C5)cc4)n[nH]c3c1)C(=O)N2 (relative stereo) [CFI-400945, (1R,2S).2-(3-((E).4-(((cis).2,6-dimethylmorpholino)methyl)styryl). 1H.indazol-6-yl)-5′-methoxyspiro[cyclopropane-1,3′-indolin]-2′-one, reference compound]
Plk4-YFP stabilization [1]: only slight Plk4-YFP stabilization
nuclear morphology and division (HeLa cells): become grossly multinuclear
effect on centrosome number (HeLa cells; 3 days): causes centrosome amplification; also recorded: does not deplete centrioles from cells; also recorded: induces centrosome amplification

COc1c(Nc2cc(C)[nH]n2)nc(Sc2ccc(S(=O)(=O)Cc3cccc([N+](=O)[O-])c3F)cc2F)nc1N1CCCCC1 [Centrinone-B, 2-((2-fluoro-4-((2-fluoro-3-nitrobenzyl)sulfonyl)phenyl)thio)-5-methoxy-N-(5-methyl-1H-pyrazol-3-yl)-6-(piperidin-1-yl)pyrimidin-4-amine]
Plk4 selectivity, Ki(SRPK1)/Ki(Plk4) (SRPK1): >847
Ki (SRPK1; [4]): > 500 nM
Ki [2]: 0.6 nM and 0.59 nM
Plk4 selectivity, Ki(JAK2)/Ki(Plk4) (JAK2): >847
Ki (JAK2; [4]): > 500 nM
Ki (human Aurora A): 1240 nM
Plk4 selectivity, Ki(Aurora A)/Ki(Plk4) (human Aurora A): 2108
Plk4 selectivity, Ki(TNK1)/Ki(Plk4) (TNK1): 10
Ki (TNK1; [4]): 6.04 nM
Plk4 selectivity, Ki(ROS/ROS1)/Ki(Plk4) (ROS/ROS1): 153
Ki (ROS/ROS1; [4]): 90.1 nM
Plk4 selectivity, Ki(LRRK2)/Ki(Plk4) (LRRK2): 13
Ki (LRRK2; [4]): 7.66 nM
Ki [3]: 498 nM
Plk4 selectivity, Ki(Plk4 G95L)/Ki(Plk4) [3]: 847
Ki (Aurora B): 5600 nM
Plk4 selectivity, Ki(Aurora B)/Ki(Plk4) (Aurora B): 9523
Plk4 selectivity, Ki(RET)/Ki(Plk4) (RET): 332
Ki (RET; [4]): 195 nM
centrosome depletion at (centrosomes in cells): 500 nM
Plk4 selectivity, Ki(FLT4/VEGFR3)/Ki(Plk4) (FLT4/VEGFR3): 99
Ki (FLT4/VEGFR3; [4]): 58 nM

CCc1cccc(CC)c1NC(=O)c1nn(C)c2c1CCc1cnc(Nc3ccc(C(=O)NC4CCN(C)CC4)cc3OC(F)(F)F)nc1-2 [NMS-P715]
percentage of daughters not dividing within 48 hours (RPE1 cells): 11.4%
